Assay results from patent publication US6309679A, “Method of improving processes using pectinase enzymes with noble gases” (American Air Liquide, priority 1995, dated 2001).

Key:
[1] = system: Pectinesterase (EC 3.1.1.11); assay: Pectinesterase/p-Nitrophenyl acetate reaction gas run (spectrophotometric, 400 nm); format: biochemical, Orange Peel; settings: maximum effect, percent change compared to air
Protocol: PECTINESTERASE (P-5400)/p-NITROPHENYL ACETATE (N-8130) GAS RUN PROTOCOL
PURPOSE: Effect of Air, Ne, Ar, Kr, Xe, N2 and 02 on Pectinesterase/p-Nitrophenyl acetate reaction at 10° C., 25° C. and 35° C. (one substrate concentration).
ENZYME: Pectinesterase P-5400
Unit definition: one unit will release 1 μequivalent of acid from pectin per min at pH 7.5 at 30° C.
SUBSTRATE: p-Nitrophenyl acetate N-8130
Soln A: 0.1 M Citric acid--Na2 HPO4 buffer, pH 7.5 25° C.
Soln B: 50 mM Methanolic p-Nitrophenyl acetate (N-8130)
Soln C: p-Nitrophenyl acetate in Soln A
Soln D: Pectinesterase (100 Units/ml) in Soln A
R=2.0 ml Soln C+0.5 ml Soln A
Fill the cuvettes with 2.0 ml of Soln C with a 1 cc syringe.
Fill 8 serum vials with 5.0 ml of Soln D. Stopper and crimp to effect a gas tight system.
(§1) Bubble 4×30 cc of the appropriate gas in T1G1 . . . 5 cuvettes. Refrigerate under 2×10 cc of the appropriate gas. Keep refrigerated at least 15 minutes before running.
(§2) Remove G1 . . . 5 serum vials from fridge. Sample Soln D with 1 cc syringes previously filled with the appropriate gas. Slide the syringes/needle through the silicone but not into the liquid layer, simultaneously push plungers into the liquid and push the plungers simultaneously, run timedrives.
(§3) Bubble 4×30 cc of the appropriate gas in T2G1 . . . 5 cuvettes. Refrigerate under 2×10 cc of the appropriate gas. Keep refrigerated at least 15 minutes before running.
(§4) Bubble 4×30 cc of the appropriate gas in T3G1 . . . 5 cuvettes. Refrigerate under 2×10 cc of the appropriate gas. Keep refrigerated at least 15 minutes before running.

Pectinase (EC 3.2.1.15) = assay: Pectinase/Pectin reaction gas run (spectrophotometric, 400 nm); format: biochemical, Aspergillus niger; settings: maximum effect, percent change compared to air
Protocol: PECTINASE (EC 3.2.1.15) (P-9932)/PECTIN (P-9135) GAS RUN PROTOCOL
PURPOSE: Effect of Air, Ne, Ar, Kr, Xe, N2 and O2 on Pectinase/Pectin reaction at 10° C., 25° C. and 35° C. (one substrate concentration).
ENZYME: Pectinase (Sigma No. P-9932) from Aspergillus niger Solution in 25-45% glycerol (actual glycerol content on label)
Unit Definition: one unit will liberate 1.0 μmole of galacturonic acid from polygalacturonic acid per min at pH 4.0 at 25° C.
SUBSTRATE: Pectin (Sigma No. P-9135) from Citrus fruits
Soln A: 0.1 M Citric acid--sodium citrate, pH 4.0 at 25° C. Dissolve 7.6 g citric acid and 12.05 g sodium citrate in 1 liter of DI H2 O. Adjust pH to 4.0. pH25° C. =4.013
Soln B: 1% Pectin in DI H2 O Boil 100 ml DI H2 O. Add 1 g pectin, stir by hand. Cover, boil for 2 minutes, stir by hand, boil for an additional 1 minute. Remove from heat and let cool for 10 minutes.
Soln C: Pectinase (50 U/ml) in Soln A Dilute 43.5 ml Pectinase to 50 ml with Soln A. Store in an amber bottle and refrigerate.
R=2.0 ml Soln B+0.5 ml Soln A
Fill the cuvettes with 2.0 ml of Soln B with a 1 cc syringe.
Fill 8 serum vials with 5.0 ml of Soln C Stopper and crimp to effect a gas tight system.
as §1
as §2, with “C” for “D”, “simultaneously, THEN IT WILL BE NECESSARY TO PULL AND PUSH PLUNGER FOUR TIMES TO EFFECT MIXING OF THE SUBSTRATE AND ENZYME IN THE CUVETTES,” for “simultaneously,”
as §3, §4

Row | Compound | Pectinesterase % Rate Difference ([1]; 10° C.) | Pectinesterase % Rate Difference ([1]; 25° C.) | Pectinesterase % Yield Difference ([1]; 25° C.) | Pectinesterase % Rate Difference ([1]; 35° C.) | Pectinesterase % Yield Difference ([1]; 35° C.) | Pectinase % Rate Difference (Pectinase (EC 3.2.1.15); 25° C.) | Pectinase % Rate Difference (Pectinase (EC 3.2.1.15); 35° C.) | Pectinase % Yield Difference (Pectinase (EC 3.2.1.15); 35° C.)
1 | [Ar] [Ar, argon] | 5.0% | 17.7% | 2.1% | 0.8% | 0.70% | 6.4% | 18.3% | 8.0%
2 | [Kr] [Kr, krypton] | 32.3% | 29.4% | 8.3% | 0.8% | 2.1% | 2.1% | 6.7% | 1.4%
3 | [Xe] [Xe, xenon] | 29.0% | 2.0% | 0.70% | 3.3% | 0.0% | 0.0% | 15.0% | 7.0%
4 | [Ne] [Ne, neon] | 19.4% | 0.0% | 0.37% | 1.6% | 1.4% | 4.3% | 3.3% | 3.3%
